Reference: ChEMBL document CHEMBL1130317 (J Med Chem, 1997)

Assays:
[1] = target: Aldo-keto reductase family 1 member B1 (Rattus norvegicus) (UniProt P07943); assay: Inhibitory activity against rat lens aldose reductase(AR) at the concentration of 1*10e-7 M
[2] = target: T1, Aldo-keto reductase family 1 member A1 (Rattus norvegicus, UniProt P51635); assay: In vitro inhibitory activity against rat kidney aldehyde reductase(ALR).
T1 sequence (P51635 whole entry): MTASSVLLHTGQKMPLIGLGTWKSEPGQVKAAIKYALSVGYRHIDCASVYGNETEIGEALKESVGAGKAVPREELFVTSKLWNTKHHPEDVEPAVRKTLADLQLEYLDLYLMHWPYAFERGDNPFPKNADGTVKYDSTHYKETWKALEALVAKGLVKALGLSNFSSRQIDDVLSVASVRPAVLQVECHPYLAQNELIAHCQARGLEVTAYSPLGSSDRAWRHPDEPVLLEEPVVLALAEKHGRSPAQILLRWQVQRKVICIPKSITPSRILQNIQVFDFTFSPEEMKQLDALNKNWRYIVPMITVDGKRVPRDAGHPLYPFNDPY

[3] = target: T2, Aldo-keto reductase family 1 member A1 (Rattus norvegicus) (UniProt P51635); assay: Percent inhibition of rat kidney Aldehyde reductase (ALR) at 1x10E-4 M
T2 sequence (whole entry): T1 sequence (P51635 whole entry)

[4] = target: Aldo-keto reductase family 1 member B1 (Rattus norvegicus, UniProt P07943); assay: Inhibitory activity against rat lens aldose reductase(AR).
Rattus norvegicus = organism: Rattus norvegicus; assay: Ratio of IC50 value of rat kidney ALR to rat lens AR; format: tissue-based; settings: Lens of camera-type eye

| Compound | inhibition [1] [%] | IC50 [2] [µM] | inhibition [3] [%] | IC50 [4] [µM] | Ratio (Rattus norvegicus) |
| --- | --- | --- | --- | --- | --- |
| O=C(O)CN1CC(=O)N(Cc2nc3cc(Cl)ccc3s2)C1=O | 47.5 | – | – | – | – |
| O=C(O)CN1C(=O)N(Cc2cccc([N+](=O)[O-])c2)C(=O)C1O (configuration not stated) | 44 | > 100 | 11 | – | – |
| O=C(O)CN1C(=O)C(=O)N(Cc2nc3cc(Cl)ccc3s2)C1=O | – | 58 | – | 0.015 | 3870 |
| O=C(O)CN1C(=O)C(=O)N(Cc2nc3c(Cl)cccc3s2)C1=O | – | 72 | – | 0.012 | 6000 |
| O=C(O)CN1C(=O)C(=O)N(Cc2cccc([N+](=O)[O-])c2)C1=O | – | – | 37.3 | – | – |
| C=C1C(=O)N(CC(=O)O)C(=O)N1Cc1cccc([N+](=O)[O-])c1 | – | 58 | – | 0.032 | 1810 |
| O=C(O)CN1CC(=O)N(Cc2ccc(Cl)c([N+](=O)[O-])c2)C1=O | – | > 100 | 1.6 | 0.024 | > 4170 |
| O=C(O)CN1C(=O)CN(Cc2cccc([N+](=O)[O-])c2)C1=O | 4.6 | > 100 | – | – | – |
| O=C(O)Cn1ccc(=O)n(Cc2ccc(Cl)c([N+](=O)[O-])c2)c1=O | – | > 100 | 26.5 | 0.025 | > 4000 |
| O=C(O)CN1CC(=O)N(Cc2cccc([N+](=O)[O-])c2)C1=O | 38.2 | > 100 | 3.8 | – | – |
| C=C1N(CC(=O)O)C(=O)C(=O)N1Cc1cccc([N+](=O)[O-])c1 | 17.7 | > 100 | 12.4 | – | – |
| O=C(O)Cn1ccc(=O)n(Cc2nc3c(Cl)cccc3s2)c1=O | – | > 100 | 39.3 | 0.011 | > 9090 |
| O=C(O)CN1C(=O)C(O)N(Cc2cccc([N+](=O)[O-])c2)C1=O (configuration not stated) | 5 | > 100 | 19 | – | – |
| O=C(O)Cn1ccc(=O)n(Cc2cccc([N+](=O)[O-])c2)c1=O | – | > 100 | 17.4 | 0.034 | > 2940 |
| O=C(O)CN1C(=O)C(=O)N(Cc2cccc([N+](=O)[O-])c2)C1=S | – | 28 | – | 0.025 | 1120 |
| O=C(O)Cn1c(=O)ccn(Cc2cccc([N+](=O)[O-])c2)c1=O | 27.8 | > 100 | 11.8 | – | – |
| O=C(O)CN1C(=O)C(=O)N(Cc2ccc(Cl)c([N+](=O)[O-])c2)C1=O | – | > 100 | 39.5 | 0.016 | > 6250 |
| O=C(O)CN1C(=O)CC(=O)N(Cc2cccc([N+](=O)[O-])c2)C1=O | 1.5 | > 100 | 33.5 | – | – |
| O=C(O)CN1CC(=O)N(Cc2nc3c(Cl)cccc3s2)C1=O | – | > 100 | 37 | 0.062 | > 1610 |
| O=C(O)Cn1ccc(=O)n(Cc2nc3cc(Cl)ccc3s2)c1=O | – | > 100 | 32 | 0.0057 | > 17500 |
